# How the values were obtained:
# Mouse L cells [1] = assay: Protection from TNFα-induced cell death, MTT assay; type: cell-based
# Method: Mouse L cells (ATCC) were cultured in complete MEM medium in 37° C. incubator with 5% CO2 and 95% humidity. The culture cells were divided to […]: i. untreated control ii. Hypericin 0.5 μg/ml iii. Hypericin 1 μg/ml iv. TNFα10 u/ml v. TNFα25 u/ml vi. TNFα10 u/ml and Hypericin 0.5 μg/ml vii. TNFα10 u/ml and Hypericin 1 μg/ml viii. TNFα 25 u/ml and Hypericin 0.5 μg/ml ix. TNFα25 u/ml and Hypericin 1 μg/ml.
# Hypericin was applied to the cells 48 hr prior to TNFα administration. The experiment was terminated 24 hrs after TNF administration and cell viability evaluated by MTT assay.
# Mouse L cells [2] = assay: Protection from TNFα-induced cell death, Hemacolor assay; type: cell-based
# Method: Mouse L cells (ATCC) were cultured in complete MEM medium in 37° C. incubator with 5% CO2 and 95% humidity. The culture cells were divided to 6 separate groups: i. untreated control ii. TNFα25 u/ml iii. TNFα25 u/ml and Hypericin 0.5 μg/ml iv. TNFα25 u/ml and Hypericin 1 μg/ml v. TNFα25 u/ml and Hypericin 5 μg/ml vi. TNFα 25 u/ml and Hypericin 7.5 μg/ml.
# Hypericin was applied to the cells 48 hr prior to TNFα administration. The experiment was terminated 24 hrs after TNF administration and cell viability evaluated using the Hemacolor assay.
# [3] = test system: Herpes simplex type 1 virus induced skin inflammation; assay: Inflammatory skin reactions induced by Herpes simplex type 1 virus in guinea pig dorsa; conditions: topical 1.2 or 1.7 μg Hypericin/gr Vaseline, 3× per day for 3 days, evaluated after 96 hrs
# [4] = test system: acute IBD generated in BALB/C mice by DSS; assay: DSS-induced acute inflammatory bowel disease (IBD) in mice, colon length; type: in vivo
# Method: 36 male BABL/c mice anesthetized with Ketamine & Xylazine, are divided into six groups: • Control • Dextran sulfate sodium salt (DSS) alone −8000 MW • DSS with Hypericin 25 μg/animal • DSS with Hypericin 75 μg/animal • Hypericin 25 μg/animal • Hypericin 75 μg/animal
# Acute IBD was generated in BALB/C mice (6 mice per group) by DSS administered via the drinking water (3.5% w/v) for 7 days. Hypericin was administered to these animals intraperitoneally at doses of 25 and 75 μg/mouse beginning 48 hrs prior to initiation of DSS administration and at 48 hr intervals thereafter. After 16 days the mice were sacrificed with high dose of sodium pentobarbital, the gastro-intestinal tract removed, its overall length measured and evaluated compared to control untreated healthy mice.
smiles,measurement,setting,value
"Cc1cc(O)c2c(=O)c3c(O)cc(O)c4c5c(O)cc(O)c6c(=O)c7c(O)cc(C)c8c1c2c(c34)c(c78)c65 [Hypericin, hypericin]",prevention of TNFα induced cell death (MTT),"Mouse L cells [1]; Hypericin 0.5 μg/ml 48 hr before TNFα 10 u/ml, P≦0.025758",prevented cell death significantly
same,prevention of TNFα induced cell death (MTT),"Mouse L cells [1]; Hypericin 0.5 μg/ml 48 hr before TNFα 25 u/ml, P≦0.023446",prevented cell death significantly
same,prevention of TNFα induced cell death (MTT),"Mouse L cells [1]; Hypericin 1 μg/ml 48 hr before TNFα 10 u/ml, P≦0.014777",prevented cell death significantly
same,prevention of TNFα induced cell death (MTT),"Mouse L cells [1]; Hypericin 1 μg/ml 48 hr before TNFα 25 u/ml, P≦0.047198",prevented cell death significantly
same,cell viability (MTT),"Mouse L cells [1]; Hypericin alone, compared to the control group",did not alter cell viability
same,prevention of TNFα induced cell death (Hemacolor),"Mouse L cells [2]; Hypericin 0.5 μg/ml 48 hr before TNFα 25 u/ml, P≦0.0045",prevented cell death significantly
same,prevention of TNFα induced cell death (Hemacolor),"Mouse L cells [2]; Hypericin 1 μg/ml 48 hr before TNFα 25 u/ml, P≦0.00049",prevented cell death significantly
same,prevention of TNFα induced cell death (Hemacolor),"Mouse L cells [2]; Hypericin 5 μg/ml 48 hr before TNFα 25 u/ml, P≦0.00105",prevented cell death significantly
same,prevention of TNFα induced cell death (Hemacolor),"Mouse L cells [2]; Hypericin 7.5 μg/ml 48 hr before TNFα 25 u/ml, P≦0.00159",prevented cell death significantly
same,prevention of TNFα induced cell death (Hemacolor),Mouse L cells [2]; Hypericin 15 μg/ml before TNFα 25 u/ml,did not prevent cell death
same,inflammatory erythema following infection with herpes virus,[3],significantly inhibited
same,colon length,[4]; Hypericin 25 μg/mouse without DSS,did not alter the colon length
same,colon length,"[4]; Hypericin 75 μg/mouse intraperitoneally with 3.5% DSS, after 16 days, DSS alone 8.016 cm, control 12.6 cm, P≦0.039 vs DSS alone",9.067 cm
same,colon length,[4]; Hypericin 75 μg/mouse without DSS,did not alter the colon length
